Read-outs that look alike come from different tables or passages of the source.
Key:
[1] = tested on: S. aureus ATCC 6538; experiment: Test 2 (DGHM), action as a function of disinfection time at 22° C., 8 × 10^8 organisms/ml; type: cell-based, Staphylococcus aureus
Experimental: (§1) Another test was carried out a basis of the following solutions • 100 ml of a 0.1% solution of chlorohexidine digluconate (pH 6); and • 100 ml of a 0.1% solution of Bardac22®.
(§2) The activity of these solutions, alone or in combination, was more particularly tested in respect of Staphylococcus aureus ATCC 6538, Escherichia coli ATCC 11229 and Candida albicans ATCC 10231.
(§3) The tests were conducted in accordance with the procedure described in Chapter I/2.1 and 2.2 of Tichtlinien für die Prüfung und Bewertung chemischer Desinfektionsverfahren der DGHM/Guidelines for Testing and Evaluating Chemical Disinfection Processes of DGHM as at 1.1, 1981.

[2] = tested on: herpes virus Hominis type 1, strain Bey (HSV1); experiment: Immediate virocidal action, zone-forming units on vero cells; type: cell-based; conditions: day 4, three culture dishes
[3] = tested on: AgHBs; experiment: In vitro degradation of the antigen of hepatitis B virus (AgHBs), virocide + human serum of a hepatitis B patient; type: biochemical; conditions: Bardac 0.2%
Description: Action on In Vitro Degradation of the Antigen of Hepatitis B Virus (AgHBs) of the Hepatitis B Virus: Virocide+Human Serum Taken from a Patient with Hepatitis B ( 1/1000th)

[4] = tested on: human fibroblastic cells; experiment: Cytotoxicity check of the products on human fibroblastic cells; type: cell-based
Experimental: Cytotoxicity checks are conducted on the products for cellular cultures used in the tests, that is to say the human fibroblastic cells.
The cells are cultivated on a Dulbecco medium enriched with 10% fetal calf serum; at the moment of their use, the cells are washed and the same culture medium is used but without calf serum.
For each product tested or each composition, 10 tubes of cellular culture were used and after inoculation of the product, the tubes were kept under observation for 3 days.
Each product was, in succession, used pure and at dilutions of 10^−1, 10^−2, 10^−3 and added to culture tubes containing 1 ml of nutrient medium in a volume of 0.1 ml.

[5] = tested on: E. coli ATCC 11229; experiment: Test 2 (DGHM), action as a function of disinfection time at 22° C., 2 × 10^9 organisms/ml; type: cell-based, Escherichia coli
Experimental: as §1, §2, §3

## CCCCCCCCCC[N+](C)(C)CCCCCCCCCC.[Cl-] [Bardac ®, didecyl dimethyl ammonium chloride]
[1]; 0.05% vol/vol, 1 min
  growth: +
[1]; 0.05% vol/vol, 3 min
  growth: +
[1]; 0.05% vol/vol, 5 min
  growth: +
[1]; 0.05% vol/vol, 15 min
  growth: +
[1]; 0.05% vol/vol, 30 min
  growth: +
[1]; 0.05% vol/vol, 60 min
  growth: +
[1]; 0.1% vol/vol, 1 min
  growth: +
[1]; 0.1% vol/vol, 3 min
  growth: +
[1]; 0.1% vol/vol, 5 min
  growth: +
[1]; 0.1% vol/vol, 15 min
  growth: +
[1]; 0.1% vol/vol, 30 min
  growth: +
[1]; 0.1% vol/vol, 60 min
  growth: +
[1]; 0.5% vol/vol, 1 min
  growth: +
[1]; 0.5% vol/vol, 3 min
  growth: +
[1]; 0.5% vol/vol, 5 min
  growth: +
[1]; 0.5% vol/vol, 15 min
  growth: +
[1]; 0.5% vol/vol, 30 min
  growth: +
[1]; 0.5% vol/vol, 60 min
  growth: +
[1]; 1% vol/vol, 1 min
  growth: +
[1]; 1% vol/vol, 3 min
  growth: +
[1]; 1% vol/vol, 5 min
  growth: +
[1]; 1% vol/vol, 15 min
  growth: +
[1]; 1% vol/vol, 30 min
  growth: −
[1]; 1% vol/vol, 60 min
  growth: −
[1]; 5% vol/vol, 1 min
  growth: +
[1]; 5% vol/vol, 3 min
  growth: +
[1]; 5% vol/vol, 5 min
  growth: +
[1]; 5% vol/vol, 15 min
  growth: −
[1]; 5% vol/vol, 30 min
  growth: −
[1]; 5% vol/vol, 60 min
  growth: −
[1]; 10% vol/vol, 1 min
  growth: +
[1]; 10% vol/vol, 3 min
  growth: −
[1]; 10% vol/vol, 5 min
  growth: −
[1]; 10% vol/vol, 15 min
  growth: −
[1]; 10% vol/vol, 30 min
  growth: −
[1]; 10% vol/vol, 60 min
  growth: −
[1]; 25% vol/vol, 1 min
  growth: +
[1]; 25% vol/vol, 3 min
  growth: −
[1]; 25% vol/vol, 5 min
  growth: −
[1]; 25% vol/vol, 15 min
  growth: −
[1]; 25% vol/vol, 30 min
  growth: −
[1]; 25% vol/vol, 60 min
  growth: −
[2]; Bardac 0.02%
  Number of zone-forming units per milliliter of virus diluted to 10^−4: 30/125/45
[2]; Bardac, concentration not given, second series (control virus at 10^−6)
  Number of zone-forming units per milliliter of virus diluted to 10^−4: 26/17/20
[3]
  Residual AgHBs (ratio): 1.35
[4]; 0.04% solution at a dilution of 10^−3, 0.1 ml in 1 ml medium, 3 days
  toxicity for the cell cultures: not toxic
[5]; 0.05% vol/vol, 1 min
  growth: +
[5]; 0.05% vol/vol, 3 min
  growth: +
[5]; 0.05% vol/vol, 5 min
  growth: +
[5]; 0.05% vol/vol, 15 min
  growth: +
[5]; 0.05% vol/vol, 30 min
  growth: +
[5]; 0.05% vol/vol, 60 min
  growth: +
[5]; 0.1% vol/vol, 1 min
  growth: +
[5]; 0.1% vol/vol, 3 min
  growth: +
[5]; 0.1% vol/vol, 5 min
  growth: +
[5]; 0.1% vol/vol, 15 min
  growth: +
[5]; 0.1% vol/vol, 30 min
  growth: +
[5]; 0.1% vol/vol, 60 min
  growth: +
[5]; 0.5% vol/vol, 1 min
  growth: +
[5]; 0.5% vol/vol, 3 min
  growth: +
[5]; 0.5% vol/vol, 5 min
  growth: +
[5]; 0.5% vol/vol, 15 min
  growth: +
[5]; 0.5% vol/vol, 30 min
  growth: +
[5]; 0.5% vol/vol, 60 min
  growth: +
[5]; 1% vol/vol, 1 min
  growth: +
[5]; 1% vol/vol, 3 min
  growth: +
[5]; 1% vol/vol, 5 min
  growth: +
[5]; 1% vol/vol, 15 min
  growth: +
[5]; 1% vol/vol, 30 min
  growth: +
[5]; 1% vol/vol, 60 min
  growth: +
[5]; 5% vol/vol, 1 min
  growth: +
[5]; 5% vol/vol, 3 min
  growth: +
[5]; 5% vol/vol, 5 min
  growth: +
[5]; 5% vol/vol, 15 min
  growth: −
[5]; 5% vol/vol, 30 min
  growth: −
[5]; 5% vol/vol, 60 min
  growth: −
[5]; 10% vol/vol, 1 min
  growth: +
[5]; 10% vol/vol, 3 min
  growth: +
[5]; 10% vol/vol, 5 min
  growth: −
[5]; 10% vol/vol, 15 min
  growth: −
[5]; 10% vol/vol, 30 min
  growth: −
[5]; 10% vol/vol, 60 min
  growth: −
[5]; 25% vol/vol, 1 min
  growth: −
[5]; 25% vol/vol, 3 min
  growth: −
[5]; 25% vol/vol, 5 min
  growth: −
[5]; 25% vol/vol, 15 min
  growth: −
[5]; 25% vol/vol, 30 min
  growth: −
[5]; 25% vol/vol, 60 min
  growth: −

## [H]/N=C(\N/C(=N/[H])NCCCCCCNC(=N)NC(=N)Nc1ccc(Cl)cc1)Nc1ccc(Cl)cc1 [Chlorhexidine, chlorohexidine digluconate, reference compound]
[1]; 0.05% vol/vol, 1 min
  growth: +
[1]; 0.05% vol/vol, 3 min
  growth: +
[1]; 0.05% vol/vol, 5 min
  growth: +
[1]; 0.05% vol/vol, 15 min
  growth: +
[1]; 0.05% vol/vol, 30 min
  growth: +
[1]; 0.05% vol/vol, 60 min
  growth: +
[1]; 0.1% vol/vol, 1 min
  growth: +
[1]; 0.1% vol/vol, 3 min
  growth: +
[1]; 0.1% vol/vol, 5 min
  growth: +
[1]; 0.1% vol/vol, 15 min
  growth: +
[1]; 0.1% vol/vol, 30 min
  growth: +
[1]; 0.1% vol/vol, 60 min
  growth: +
[1]; 0.5% vol/vol, 1 min
  growth: +
[1]; 0.5% vol/vol, 3 min
  growth: +
[1]; 0.5% vol/vol, 5 min
  growth: +
[1]; 0.5% vol/vol, 15 min
  growth: +
[1]; 0.5% vol/vol, 30 min
  growth: +
[1]; 0.5% vol/vol, 60 min
  growth: +
[1]; 1% vol/vol, 1 min
  growth: +
[1]; 1% vol/vol, 3 min
  growth: +
[1]; 1% vol/vol, 5 min
  growth: +
[1]; 1% vol/vol, 15 min
  growth: +
[1]; 1% vol/vol, 30 min
  growth: +
[1]; 1% vol/vol, 60 min
  growth: +
[1]; 5% vol/vol, 1 min
  growth: +
[1]; 5% vol/vol, 3 min
  growth: +
[1]; 5% vol/vol, 5 min
  growth: +
[1]; 5% vol/vol, 15 min
  growth: +
[1]; 5% vol/vol, 30 min
  growth: +
[1]; 5% vol/vol, 60 min
  growth: +
[1]; 10% vol/vol, 1 min
  growth: +
[1]; 10% vol/vol, 3 min
  growth: +
[1]; 10% vol/vol, 5 min
  growth: +
[1]; 10% vol/vol, 15 min
  growth: +
[1]; 10% vol/vol, 30 min
  growth: +
[1]; 10% vol/vol, 60 min
  growth: −
[1]; 25% vol/vol, 1 min
  growth: +
[1]; 25% vol/vol, 3 min
  growth: +
[1]; 25% vol/vol, 5 min
  growth: +
[1]; 25% vol/vol, 15 min
  growth: +
[1]; 25% vol/vol, 30 min
  growth: −
[1]; 25% vol/vol, 60 min
  growth: −
[4]
  toxicity for the cell cultures: no toxicity
[5]; 0.05% vol/vol, 1 min
  growth: +
[5]; 0.05% vol/vol, 3 min
  growth: +
[5]; 0.05% vol/vol, 5 min
  growth: +
[5]; 0.05% vol/vol, 15 min
  growth: +
[5]; 0.05% vol/vol, 30 min
  growth: +
[5]; 0.05% vol/vol, 60 min
  growth: +
[5]; 0.1% vol/vol, 1 min
  growth: +
[5]; 0.1% vol/vol, 3 min
  growth: +
[5]; 0.1% vol/vol, 5 min
  growth: +
[5]; 0.1% vol/vol, 15 min
  growth: +
[5]; 0.1% vol/vol, 30 min
  growth: +
[5]; 0.1% vol/vol, 60 min
  growth: +
[5]; 0.5% vol/vol, 1 min
  growth: +
[5]; 0.5% vol/vol, 3 min
  growth: +
[5]; 0.5% vol/vol, 5 min
  growth: +
[5]; 0.5% vol/vol, 15 min
  growth: +
[5]; 0.5% vol/vol, 30 min
  growth: +
[5]; 0.5% vol/vol, 60 min
  growth: +
[5]; 1% vol/vol, 1 min
  growth: +
[5]; 1% vol/vol, 3 min
  growth: +
[5]; 1% vol/vol, 5 min
  growth: +
[5]; 1% vol/vol, 15 min
  growth: +
[5]; 1% vol/vol, 30 min
  growth: +
[5]; 1% vol/vol, 60 min
  growth: +
[5]; 5% vol/vol, 1 min
  growth: +
[5]; 5% vol/vol, 3 min
  growth: +
[5]; 5% vol/vol, 5 min
  growth: +
[5]; 5% vol/vol, 15 min
  growth: +
[5]; 5% vol/vol, 30 min
  growth: −
[5]; 5% vol/vol, 60 min
  growth: −
[5]; 10% vol/vol, 1 min
  growth: +
[5]; 10% vol/vol, 3 min
  growth: +
[5]; 10% vol/vol, 5 min
  growth: +
[5]; 10% vol/vol, 15 min
  growth: −
[5]; 10% vol/vol, 30 min
  growth: −
[5]; 10% vol/vol, 60 min
  growth: −
[5]; 25% vol/vol, 1 min
  growth: +
[5]; 25% vol/vol, 3 min
  growth: +
[5]; 25% vol/vol, 5 min
  growth: +
[5]; 25% vol/vol, 15 min
  growth: −
[5]; 25% vol/vol, 30 min
  growth: −
[5]; 25% vol/vol, 60 min
  growth: −
